Data as given in ChEMBL document CHEMBL5634117 (Eur J Med Chem, 2023).

Legend:
Format in all cases: functional
K562 [1] = experiment: Induction of cell cycle arrest in human K562 cells assessed as accumulation of cells at S phase at 1.28 uM measured after 24 hrs by PI staining based flow cytometry analysis (reference value: 24.75%)
K562 [2] = experiment: Induction of cell cycle arrest in human K562 cells assessed as accumulation of cells at SubG1 phase at 0.64 uM measured after 24 hrs by PI staining based flow cytometry analysis (reference value: 2.21%)
K562 [3] = experiment: Induction of cell cycle arrest in human K562 cells assessed as accumulation of cells at S phase at 2.56 uM measured after 24 hrs by PI staining based flow cytometry analysis (reference value: 21.74%)
K562 [4] = experiment: Induction of cell cycle arrest in human K562 cells assessed as accumulation of cells at SubG1 phase at 0.64 uM measured after 24 hrs by PI staining based flow cytometry analysis (reference value: 2.48%)
K562 [5] = experiment: Induction of cell cycle arrest in human K562 cells assessed as accumulation of cells at SubG1 phase at 2.56 uM measured after 24 hrs by PI staining based flow cytometry analysis (reference value: 2.48%)
K562 [6] = experiment: Induction of cell cycle arrest in human K562 cells assessed as accumulation of cells at G2/M phase at 2.5 uM measured after 24 hrs by PI staining based flow cytometry analysis (reference value: 29.44%)
K562 [7] = experiment: Induction of apoptosis in human K562 cells assessed as late apoptotic cells at 2.56 uM incubated for 24 hrs by annexinV and propidium iodide staining based flow cytometry analysis (reference value: 1.34%)
K562 [8] = experiment: Induction of apoptosis in human K562 cells assessed as late apoptotic cells at 1.25 uM incubated for 24 hrs by annexinV and propidium iodide staining based flow cytometry analysis (reference value: 1.34%)

Row | Structure (SMILES) | Activity (K562 [1]) [%] | Activity (K562 [2]) [%] | Activity (K562 [3]) [%] | Activity (K562 [4]) [%] | Activity (K562 [5]) [%] | Activity (K562 [6]) [%] | Activity (K562 [7]) [%] | Activity (K562 [8]) [%]
1 | CC(C)(C)n1cc(-c2ccnc(NCCCNS(=O)(=O)c3ccc(Cl)cc3)c2)c(-c2cccc(O)c2)n1 | 32.68 | 2.16 |  |  |  |  |  | 
2 | O=C1c2ccccc2-c2n[nH]c3cccc1c23 |  |  | 21.55 | 4.68 | 2.85 | 45.34 | 3.7 | 1.47
